Results reported in PMC6943732, “The Disulfide Stress Response and Protein S-thioallylation Caused by Allicin and Diallyl Polysulfanes in Bacillus subtilis as Revealed by Transcriptomics and Proteomics” (Antioxidants, 2019).

Experiments:
Type in all cases: cell-based
GuaB = target: T1, GuaB (Bacillus subtilis, UniProt P21879); experiment: shotgun Orbitrap LC-MS/MS of S-thioallylated Cys peptides (+[…] Da); conditions: covalent, active site Cys308
T1 construct: native, in treated cells, shotgun proteomics of tryptic peptides
T1 sequence (P21879 whole entry): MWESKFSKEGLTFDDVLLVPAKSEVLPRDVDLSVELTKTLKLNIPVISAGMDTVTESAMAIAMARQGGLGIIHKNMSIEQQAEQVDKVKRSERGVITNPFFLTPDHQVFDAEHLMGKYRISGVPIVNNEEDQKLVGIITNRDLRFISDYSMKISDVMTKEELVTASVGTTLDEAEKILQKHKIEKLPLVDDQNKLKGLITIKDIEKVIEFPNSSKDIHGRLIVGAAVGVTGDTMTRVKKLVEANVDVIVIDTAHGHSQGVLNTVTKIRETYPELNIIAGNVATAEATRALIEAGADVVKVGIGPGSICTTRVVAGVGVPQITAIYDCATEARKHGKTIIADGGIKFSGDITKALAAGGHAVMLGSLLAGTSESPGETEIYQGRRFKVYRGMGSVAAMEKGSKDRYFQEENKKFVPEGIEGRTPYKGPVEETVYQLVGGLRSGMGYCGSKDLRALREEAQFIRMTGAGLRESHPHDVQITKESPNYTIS

MetE = target: T2, MetE (Bacillus subtilis, UniProt P80877); experiment: as above; conditions: covalent, Cys719/Cys730
T2 construct: native, in treated cells, shotgun proteomics of tryptic peptides
T2 sequence (P80877 2-762): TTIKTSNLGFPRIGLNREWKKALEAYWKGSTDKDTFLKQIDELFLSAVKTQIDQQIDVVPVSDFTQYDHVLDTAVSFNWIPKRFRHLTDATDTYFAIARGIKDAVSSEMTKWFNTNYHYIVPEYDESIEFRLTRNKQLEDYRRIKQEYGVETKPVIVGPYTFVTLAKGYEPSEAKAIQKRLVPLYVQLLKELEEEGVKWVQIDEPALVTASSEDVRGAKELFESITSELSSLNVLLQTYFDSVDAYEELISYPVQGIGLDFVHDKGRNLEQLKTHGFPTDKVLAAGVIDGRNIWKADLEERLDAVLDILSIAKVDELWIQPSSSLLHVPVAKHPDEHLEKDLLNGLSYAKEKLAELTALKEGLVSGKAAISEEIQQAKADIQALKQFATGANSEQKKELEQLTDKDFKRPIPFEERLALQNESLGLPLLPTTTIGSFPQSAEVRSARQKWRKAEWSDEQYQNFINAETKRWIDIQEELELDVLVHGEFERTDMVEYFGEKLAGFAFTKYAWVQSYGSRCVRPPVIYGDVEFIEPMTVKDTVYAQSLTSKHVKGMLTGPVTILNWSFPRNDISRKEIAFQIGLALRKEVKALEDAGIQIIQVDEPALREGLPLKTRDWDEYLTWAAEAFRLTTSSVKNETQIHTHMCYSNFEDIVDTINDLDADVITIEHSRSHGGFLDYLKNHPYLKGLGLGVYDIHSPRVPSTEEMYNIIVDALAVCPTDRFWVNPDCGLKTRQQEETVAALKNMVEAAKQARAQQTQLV

TufA (EF-Tu) = target: T3, TufA (EF-Tu) (Bacillus subtilis, UniProt P33166); experiment: as above; conditions: covalent, Cys83
T3 construct: gene tuf; native, in treated cells, shotgun proteomics of tryptic peptides
T3 sequence (P33166 2-396): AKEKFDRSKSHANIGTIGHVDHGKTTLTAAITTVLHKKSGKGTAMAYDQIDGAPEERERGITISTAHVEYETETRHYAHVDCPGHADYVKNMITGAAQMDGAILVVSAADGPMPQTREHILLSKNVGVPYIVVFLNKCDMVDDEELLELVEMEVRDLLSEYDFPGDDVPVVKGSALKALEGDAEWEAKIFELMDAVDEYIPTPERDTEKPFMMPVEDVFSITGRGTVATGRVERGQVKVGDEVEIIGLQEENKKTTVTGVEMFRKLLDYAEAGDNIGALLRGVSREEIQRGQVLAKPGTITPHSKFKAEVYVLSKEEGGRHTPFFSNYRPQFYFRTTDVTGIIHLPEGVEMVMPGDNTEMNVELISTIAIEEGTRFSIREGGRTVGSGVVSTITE

GlnA = target: T4, GlnA (Bacillus subtilis, UniProt P12425); experiment: as above; conditions: covalent
T4 construct: native, in treated cells, shotgun proteomics of tryptic peptides
T4 sequence (P12425 2-444): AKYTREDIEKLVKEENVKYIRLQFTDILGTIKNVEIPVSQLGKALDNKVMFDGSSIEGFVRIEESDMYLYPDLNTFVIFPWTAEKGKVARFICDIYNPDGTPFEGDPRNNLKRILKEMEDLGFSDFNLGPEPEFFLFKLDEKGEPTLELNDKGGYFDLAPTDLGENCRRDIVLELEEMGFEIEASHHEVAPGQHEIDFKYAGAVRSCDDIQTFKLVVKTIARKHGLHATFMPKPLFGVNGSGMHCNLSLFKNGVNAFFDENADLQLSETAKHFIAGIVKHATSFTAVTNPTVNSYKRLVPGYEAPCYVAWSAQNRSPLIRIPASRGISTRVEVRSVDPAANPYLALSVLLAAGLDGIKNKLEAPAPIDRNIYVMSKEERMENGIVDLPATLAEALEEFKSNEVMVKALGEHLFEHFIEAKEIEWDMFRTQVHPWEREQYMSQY

FusA (EF-G) = target: T5, FusA (EF-G) (Bacillus subtilis, UniProt P80868); experiment: as above; conditions: covalent, Cys239
T5 construct: native, in treated cells, shotgun proteomics of tryptic peptides
T5 sequence (P80868 2-692): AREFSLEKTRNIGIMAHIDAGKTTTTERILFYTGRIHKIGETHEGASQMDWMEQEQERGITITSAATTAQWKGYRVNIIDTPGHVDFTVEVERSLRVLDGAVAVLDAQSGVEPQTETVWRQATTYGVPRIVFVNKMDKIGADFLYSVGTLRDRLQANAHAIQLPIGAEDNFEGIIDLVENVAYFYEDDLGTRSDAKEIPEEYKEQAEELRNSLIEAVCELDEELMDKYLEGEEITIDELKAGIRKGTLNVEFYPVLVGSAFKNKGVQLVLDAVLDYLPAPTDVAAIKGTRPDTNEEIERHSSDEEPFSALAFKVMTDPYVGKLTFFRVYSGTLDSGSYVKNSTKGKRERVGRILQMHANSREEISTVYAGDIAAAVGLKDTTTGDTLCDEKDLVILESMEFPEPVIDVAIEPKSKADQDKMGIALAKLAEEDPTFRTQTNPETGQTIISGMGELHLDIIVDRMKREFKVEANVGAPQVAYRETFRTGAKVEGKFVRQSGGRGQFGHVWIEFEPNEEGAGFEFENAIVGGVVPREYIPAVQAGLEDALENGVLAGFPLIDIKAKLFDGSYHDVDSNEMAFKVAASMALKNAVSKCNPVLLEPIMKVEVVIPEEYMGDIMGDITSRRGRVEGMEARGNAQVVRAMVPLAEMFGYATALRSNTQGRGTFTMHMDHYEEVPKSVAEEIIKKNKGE

SerA = target: T6, SerA (Bacillus subtilis, UniProt P35136); experiment: as above; conditions: covalent, redox-sensitive Cys
T6 construct: native, in treated cells, shotgun proteomics of tryptic peptides
T6 sequence (P35136 1-525): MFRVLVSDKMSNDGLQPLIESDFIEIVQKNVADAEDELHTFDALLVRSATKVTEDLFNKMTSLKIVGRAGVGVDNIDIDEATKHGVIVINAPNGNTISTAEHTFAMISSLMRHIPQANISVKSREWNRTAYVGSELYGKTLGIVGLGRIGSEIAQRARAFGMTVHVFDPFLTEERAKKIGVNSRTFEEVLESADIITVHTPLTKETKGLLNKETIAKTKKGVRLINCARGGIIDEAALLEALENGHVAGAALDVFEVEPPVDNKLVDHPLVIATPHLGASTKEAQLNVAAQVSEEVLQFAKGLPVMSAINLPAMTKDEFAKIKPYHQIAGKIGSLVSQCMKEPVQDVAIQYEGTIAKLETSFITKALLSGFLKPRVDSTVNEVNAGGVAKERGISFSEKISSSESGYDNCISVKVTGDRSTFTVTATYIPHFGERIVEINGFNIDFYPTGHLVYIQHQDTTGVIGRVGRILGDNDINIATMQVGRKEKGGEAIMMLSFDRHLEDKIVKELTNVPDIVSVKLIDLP

YxjG = target: T7, YxjG (Bacillus subtilis, UniProt P42318); experiment: as above; conditions: covalent, redox-sensitive Cys
T7 construct: native, in treated cells, shotgun proteomics of tryptic peptides
T7 sequence (P42318 1-378): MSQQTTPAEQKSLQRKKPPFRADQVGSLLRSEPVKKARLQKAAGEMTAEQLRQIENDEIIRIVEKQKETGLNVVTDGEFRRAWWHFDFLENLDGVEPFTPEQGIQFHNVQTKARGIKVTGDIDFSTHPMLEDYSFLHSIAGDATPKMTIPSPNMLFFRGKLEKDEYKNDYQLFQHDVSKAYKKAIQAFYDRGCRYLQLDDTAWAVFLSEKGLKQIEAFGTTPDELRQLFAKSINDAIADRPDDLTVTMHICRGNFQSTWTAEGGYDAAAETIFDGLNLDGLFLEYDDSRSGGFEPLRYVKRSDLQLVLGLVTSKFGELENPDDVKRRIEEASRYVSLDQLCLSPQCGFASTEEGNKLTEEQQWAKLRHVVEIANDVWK

PpaC = target: T8, PpaC (Bacillus subtilis, UniProt P37487); experiment: as above; conditions: covalent, active site Cys158
T8 construct: native, in treated cells, shotgun proteomics of tryptic peptides
T8 sequence (P37487 whole entry): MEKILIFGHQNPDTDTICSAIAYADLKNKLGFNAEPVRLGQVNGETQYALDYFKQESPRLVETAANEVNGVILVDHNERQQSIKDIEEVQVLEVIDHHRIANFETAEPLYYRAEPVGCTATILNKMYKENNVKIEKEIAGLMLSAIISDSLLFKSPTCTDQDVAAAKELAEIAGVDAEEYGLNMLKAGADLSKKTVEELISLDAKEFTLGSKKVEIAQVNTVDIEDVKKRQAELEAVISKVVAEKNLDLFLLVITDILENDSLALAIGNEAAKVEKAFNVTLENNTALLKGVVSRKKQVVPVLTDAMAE

CatR = target: T9, CatR (Bacillus subtilis, UniProt O32238); experiment: IP and Orbitrap LC-MS/MS of S-thioallylated Cys peptides (+[…] Da); conditions: covalent; allicin-treated cells; Cys7
T9 construct: gene yvaP; native, immunoprecipitated with polyclonal antibody from allicin-treated cells
T9 sequence (O32238 1-108): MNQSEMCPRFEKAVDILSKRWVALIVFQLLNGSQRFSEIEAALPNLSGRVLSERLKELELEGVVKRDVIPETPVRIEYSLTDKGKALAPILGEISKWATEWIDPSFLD

OhrR-FLAG = target: T10, OhrR-FLAG (Bacillus subtilis, UniProt O34777); experiment: as above; conditions: covalent; cells treated with 90 µM allicin, 30 min; Cys15 (b28 names the redox-sensing residue Cys22)
T10 construct: FLAG-tagged, expressed in B. subtilis, immunoprecipitated from allicin-treated cells
T10 sequence (O34777 1-147): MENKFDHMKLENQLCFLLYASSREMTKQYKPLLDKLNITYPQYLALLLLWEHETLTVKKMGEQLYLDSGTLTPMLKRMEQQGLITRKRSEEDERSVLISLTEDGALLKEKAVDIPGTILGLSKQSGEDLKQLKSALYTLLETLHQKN

HypR = target: T11, HypR (Bacillus subtilis, UniProt P37486); experiment: as above; conditions: covalent; allicin-treated cells; Cys14
T11 construct: gene yybR; native, immunoprecipitated with polyclonal antibody from allicin-treated cells
T11 sequence (P37486 whole entry): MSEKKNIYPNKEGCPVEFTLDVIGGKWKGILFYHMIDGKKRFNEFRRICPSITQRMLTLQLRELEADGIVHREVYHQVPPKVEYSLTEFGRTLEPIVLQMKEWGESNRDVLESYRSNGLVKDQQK

YodB = target: T12, YodB (Bacillus subtilis, UniProt O34844); experiment: as above; conditions: covalent; allicin-treated cells; Cys101 (Cys6 peptide not identified)
T12 construct: native, immunoprecipitated with polyclonal antibody from allicin-treated cells
T12 sequence (O34844 whole entry): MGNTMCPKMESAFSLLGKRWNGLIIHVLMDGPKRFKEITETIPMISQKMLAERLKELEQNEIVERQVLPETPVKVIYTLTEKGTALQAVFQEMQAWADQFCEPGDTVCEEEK

[1] = cells treated with 92 µM DAS4, 30 min
[2] = cells treated with 90 µM allicin, 30 min

Row | SMILES | shotgun Orbitrap LC-MS/MS of S-thioallylated Cys peptides (+72 Da) (GuaB; [1]) | shotgun Orbitrap LC-MS/MS of S-thioallylated Cys peptides (+72 Da) (MetE; [1]) | shotgun Orbitrap LC-MS/MS of S-thioallylated Cys peptides (+72 Da) (TufA (EF-Tu); [1]) | shotgun Orbitrap LC-MS/MS of S-thioallylated Cys peptides (+72 Da) (GlnA; [1]) | shotgun Orbitrap LC-MS/MS of S-thioallylated Cys peptides (+72 Da) (FusA (EF-G); [1]) | shotgun Orbitrap LC-MS/MS of S-thioallylated Cys peptides (+72 Da) (SerA; [1]) | shotgun Orbitrap LC-MS/MS of S-thioallylated Cys peptides (+72 Da) (YxjG; [1]) | shotgun Orbitrap LC-MS/MS of S-thioallylated Cys peptides (+72 Da) (PpaC; [1]) | IP and Orbitrap LC-MS/MS of S-thioallylated Cys peptides (+72 Da) (CatR) | IP and Orbitrap LC-MS/MS of S-thioallylated Cys peptides (+72 Da) (OhrR-FLAG) | shotgun Orbitrap LC-MS/MS of S-thioallylated Cys peptides (+72 Da) (GuaB; [2]) | shotgun Orbitrap LC-MS/MS of S-thioallylated Cys peptides (+72 Da) (MetE; [2]) | shotgun Orbitrap LC-MS/MS of S-thioallylated Cys peptides (+72 Da) (TufA (EF-Tu); [2]) | shotgun Orbitrap LC-MS/MS of S-thioallylated Cys peptides (+72 Da) (GlnA; cells treated with 90 µM allicin, 30 min, conserved Cys) | shotgun Orbitrap LC-MS/MS of S-thioallylated Cys peptides (+72 Da) (FusA (EF-G); [2]) | shotgun Orbitrap LC-MS/MS of S-thioallylated Cys peptides (+72 Da) (SerA; [2]) | shotgun Orbitrap LC-MS/MS of S-thioallylated Cys peptides (+72 Da) (YxjG; [2]) | IP and Orbitrap LC-MS/MS of S-thioallylated Cys peptides (+72 Da) (HypR) | shotgun Orbitrap LC-MS/MS of S-thioallylated Cys peptides (+72 Da) (PpaC; [2]) | IP and Orbitrap LC-MS/MS of S-thioallylated Cys peptides (+72 Da) (YodB)
1 | C=CCSSSSCC=C [DAS4] | GuaB and PpaC were S-thioallylated at their conserved redox-sensing active sites Cys308 and Cys158 | Cys239 of FusA, and Cys719/Cys730 of MetE | modified at their conserved Cys residues, e.g., Cys83 of TufA | MetE, YxjG, MetI, AroA, ArgJ, CarB, GlnA | Cys83 of TufA, Cys239 of FusA | SerA, and PpaC were modified at their redox-sensitive Cys residues by allicin and DAS4 | TufA, MetE, YxjG, GuaB, SerA, and PpaC were modified at their redox-sensitive Cys residues | pyrophosphatase PpaC were S-thioallylated by allicin and DAS4 in B. subtilis | – | – | – | – | – | – | – | – | – | – | – | –
2 | C=CCS[S+]([O-])CC=C (centres unmarked) [allicin] | – | – | – | – | – | – | – | – | modified by S-thioallylation for OhrR (Cys15), HypR (Cys14), and CatR (Cys7) | modified by S-thioallylation for OhrR (Cys15), HypR (Cys14), and CatR (Cys7) | GuaB and PpaC were S-thioallylated at their conserved redox-sensing active sites Cys308 and Cys158 | Cys239 of FusA, and Cys719/Cys730 of MetE | modified at their conserved Cys residues, e.g., Cys83 of TufA | MetE, YxjG, MetI, AroA, ArgJ, CarB, GlnA | Cys83 of TufA, Cys239 of FusA | SerA, and PpaC were modified at their redox-sensitive Cys residues by allicin and DAS4 | TufA, MetE, YxjG, GuaB, SerA, and PpaC were modified at their redox-sensitive Cys residues | modified by S-thioallylation for OhrR (Cys15), HypR (Cys14), and CatR (Cys7) | pyrophosphatase PpaC were S-thioallylated by allicin and DAS4 in B. subtilis | For the YodB-repressor, only Cys101 was S-thioallylated
